From patent publication US20240337647A1, “IMPROVED METHODS FOR IDENTIFICATION OF FUNCTIONAL CELL STATES” (priority 2021, published 2024)
Read-outs that look alike come from different tables or passages of the source.

Key:
HL60 cells = test: AsedaSciences SYSTEMETRIC Cell Health Screen (multiparametric acute cell stress assay, flow cytometry, ML classifier); conditions: probability (0 to 1) of assignment to the 'yes' high cell stress class; HL60, 4 hours, 5 nM-100 μM
Excerpt: The Cell Health Screen is a multiparametric acute cell stress assay, using a panel of fluorescent physiological reporting dyes, on an automated flow cytometry platform. Rather than simply producing dose-response curves for all individual biological readouts, features are generated by computing custom-defined distance functions between test and control wells. All test compounds are represented as feature vectors, after which the analysis algorithm employs a logistic regression model to classify test compounds relative to a training set. This machine learning (ML) approach integrates all measured readouts into a single predictive statistical model. […] This training set empirically covers the full range of possible phenotypes in the Cell Health Screen, from no-response to acute stress, with sufficient representation across the spectrum. Training set compounds were assigned to binary classes (“yes”=expectation of high cell stress or “positive” phenotype; “no”=no expectation of positive phenotype). This externally established ground-truth was based upon manually curated information from research literature and, where applicable, clinical trial results and commercial/regulatory histories.
For an unknown test compound, the ML classifier uses all the FC parameter features describing compound response, simultaneously, to predict the final assignment. This is achieved by calculating the probability of assigning that compound's screen phenotype to the “yes” class defined by the training set. By specifying the problem as a classification challenge, the data analysis pipeline assures that any apparent lack of coordinated change among biological readouts presents no interpretation challenge. All phenotypic data are treated simply as input features to a statistical model. In contrast, many conventional flow cytometry assays require strict mechanistic interpretation of every measured biological readout. often resulting in conflicting conclusions (e.g. if reactive oxygen species increase, but glutathione is unaffected, which should be “believed”?). The final probability score, or Cell Health Index, is a quantitative assessment of a multiparametric phenotype's similarity to a diverse set of known good and bad actors. Finally, choosing HL60 as our reporter cell line means that the screen is explicitly designed not to detect instances in which a parent compound only causes cellular toxicity via metabolites.
In a 384-well platform. HL60 cells are exposed to a 10-step, 3× dilution series of each test compound (5 nM-100 μM) for 4 hours at 37° C. with 5% CO2. Each dilution series is screened in duplicate, occupying a total of 20 wells, allowing 16 test compounds to be assayed on each plate. Each row contains one positive and one negative control well, for a total of 16 matched control pairs on each assay plate. Compound formatting, cell deposition, and dye application are performed robotically, so that final assay conditions comprise 100,000 cells in a 40 μl volume. After compound exposure, live cells are rapidly stained with a panel of fluorescent dyes that report physiological signatures of both mitochondrial dysfunction and gross cell stress. Fluorescence data are collected using automated flow cytometry with no gating. […] Well-specific flow cytometry data files, with an accompanying map of well contents, are moved to cloud infrastructure where the automated algorithm for quality control and ML classification is triggered. […]

[1] = test system: biomolecular targets known to be associated with common negative side effects of pharmaceuticals in humans; test: In vitro secondary pharmacology panels, all targets of the two panels (31 dose-response + 78 single concentration); type: biochemical; conditions: percentage of targets hit among all targets tested in the two secondary pharmacology panels
Method: The purpose of this study was to assess the toxicity risk estimation provided by the Cell Health Screen relative to information from panels of in vitro pharmacology assays that were also designed to detect toxicity risk during pharmaceutical development. This study was performed with outside collaborators who have expertise in the use of the in vitro pharmacology assays. These in vitro assay panels detect whether chemical compounds directly interact with biomolecular targets known to be associated with toxic side effects in humans (mostly enzymes, cell surface receptors, and other proteins that participate in signaling pathways) (Pottel et al., 2020). […] As such, the interpretation process is somewhat subjective. In contrast, the Cell Health Screen uses a feature extraction and ML classifier strategy described above, to reduce all cellular phenotypic changes caused by a chemical compound to a single probability value, from 0 to 1. This is a quantitative toxicity risk estimation relative to a training set of compounds used to train the ML classifier. Therefore, comparing results from the Cell Health Screen to the in vitro pharmacology panels is a matter of comparing the trend in ML classifier probability values, across all 40 excipients, with their relative degrees of promiscuity and target interaction potency observed in the in vitro pharmacology panels.
(§1) For a detailed description of our collaborators' in vitro pharmacology assay panels, please see the publication by Pottel et al. (Pottel et al., 2020). Briefly, each in vitro assay focuses on one biomolecular target known to be associated with common negative side effects of pharmaceuticals in humans. These targets are generally enzymes, cell surface receptors, or other proteins that mediate cell signal transduction. In one assay panel, chemical compound interaction is assessed for 31 biomolecular targets in a dose-response fashion, which assesses compound-target interaction strength expressed as an IC50 and an activity range (unless no interaction happens).
Here we present two summarized versions of the study results. […] For the biological endpoints, the abbreviation key is as follows: CM=cell morphology, CMI=cell membrane integrity, ROS=reactive oxygen species, GTH=glutathione, NMI1=nuclear membrane integrity 1, CC=cell cycle, NMI2=nuclear membrane integrity 2, MMP=mitochondrial membrane potential. […] This is the percentage of all biomolecular targets for which an effect was observed, for each excipient. The THR value serves as an expression of an excipient's promiscuity with regard to binding biomolecular targets known to associate with toxic side effects in humans.

31 biomolecular targets = test: In vitro pharmacology panel of 31 biomolecular targets, dose-response; type: biochemical; conditions: for IC50: read-out: Avg potency
Method: as §1
These last two features are derived from the first panel of 31 biomolecular targets, which are assayed using a concentration series of each excipient to produce a dose-response curve.

[2] = first panel of 31 biomolecular targets, concentration series
[3] = average concentration of the IC50 values from dose-response results, panel of 31 targets

IC50 (31 biomolecular targets; [3]) [µM] | Compound | CHI score (Cell Health Index) (HL60 cells) | Overall target hit rate [1] [%] | Activity range (31 biomolecular targets; [2]) [µM] | IC50 (31 biomolecular targets) [µM] | Activity range (31 biomolecular targets) [µM]
– | O=C([O-])c1c(Cl)c(Cl)c(Cl)c(Cl)c1-c1c2cc(Br)c(=O)c(Br)c-2oc2c(Br)c([O-])c(Br)cc12.[Na+].[Na+] [D&C Red #28, Phloxine B] | 0.637 | 55 | 0.13 to 28 | 10 | –
12 | Cc1cc(O)cc(C)c1Cl [Chloroxylenol, 4-chloro-3,5-dimethylphenol] | 0.349 | 6 | 10 to 14 | – | –
5.7 | O=C1OC2(c3ccccc31)c1cc(I)c(O)c(I)c1Oc1c2cc(I)c(O)c1I [FD&C Red #3, Erythrosine extra bluish] | – | 48 | 0.09 to 25 | – | –
– | CC(C)(C)CC(C)(C)c1ccc(OCCOCC[N+](C)(C)Cc2ccccc2)cc1 [Benzethonium chloride] | – | 51 | – | – | –
7.2 | CCCOC(=O)c1cc(O)c(O)c(O)c1 [Propyl gallate] | – | 3 | 0.015 to 7.2 | – | –
– | Polysorbate 80 | 0.422 | 13 | 1.0 to 21 | 10.7 | –
19.3 | CCCOC(=O)c1ccc(O)cc1 [Propylparaben] | – | 3 | 11 to 24 | – | –
6.5 | CN(C)c1ccc2nc3ccc(=[N+](C)C)cc-3sc2c1 [Methylene blue hydrate] | – | 48 | 0.04 to 24 | – | –
– | CC(=O)[O-].[Hg+][c]1ccccc1 [Phenylmercuric acetate] | 0.955 | 58 | – | 5 | 0.02 to 22
– | C[CH2][Hg][S]c1ccccc1C(=O)[O-].[Na+] [Thimerosal] | 0.936 | 17 | – | 15 | 0.32 to 30
